Values of other authors as cited in patent US20230255250A1, “COMPOSITION FOR NUTRITIONAL SUPPLEMENTATION THAT PREVENTS DAMAGE CAUSED BY OXIDATIVE STRESS, HAVING AS PRINCIPLES XANTHOPHYLLS FROM MICROALGAE” (priority 2022, published 2023).

Legend:
[1] = water at room temperature
[2] = doses less than 500 mg/kg intravenously

2-Hydroxylpropyl-beta-cyclodextrin [HP-β-CD]
solubility in water [1]: greater than 500 mg/mL | toxicity [2]: not toxic | regulation of molecules such as MHC proteins, and of PD-L1/L2 (dendritic cells; HP-β-CD stimulated dendritic cells): remarkable regulation | production of IL-6 (dendritic cells; treated with HP-β-CD): increased | production of IL-10 (dendritic cells; treated with HP-β-CD): increased | production of TNF-α (dendritic cells; treated with HP-β-CD): increased | proliferation and activation of T lymphocytes (T lymphocytes): induces proliferation and activation
